Laboratory results published in patent US20160367556A1, “Therapeutic Agent for Ocular Disease or Prophylactic Agent for Ocular Disease” (Japan Tobacco Inc., priority 2013, published 2016).
Several values for one entry are separate records, joined by “and”; a condition that tells them apart may be missing. Identical values can stand only once. Like-named read-outs stand apart in the source and are kept apart here.

Tests used:
[1] = Neural retina concentration after intravitreal injection to rats (LC-MS); type: in vivo; details: rat, intravitreal 10 μg/eye
Method: (§1) Experiment 3. Ocular tissue distribution and systematic exposure of Compound A orally administered or intravitreally injected
(§2) As experimental animals, male Crl:CD <SD> rats aged 8 weeks {CHARLES RIVER LABORATORIES JAPAN, INC.} were used.
In the vitreous body of each eye of rats, Compound A dissolved or suspended in a base was injected at 10 μg/eye. At 1, 2, 4 and 24 hours after intravitreal injection, neural retina was sampled, and the concentration of Compound A in the neural retina was quantified by LC-MS. Each group included two to three rats <four to six eyeballs>.
(§3) Transition of plasma concentration of Compound A orally administered (100 mg/kg) was shown in Table 1, transition of neural retina concentration of Compound A orally administered (100 mg/kg) was shown in Table 2, and transition of neural retina concentration of Compound A intravitreally injected (10 μg/eye) was shown in Table 3.

[2] = Plasma concentration after single oral administration to rats (LC-MS); type: in vivo; details: rat, oral 100 mg/kg single; for concentration at 0.5 h / concentration at 1 h / concentration at 2 h / concentration at 4 h / concentration at 6 h / concentration at 24 h: male, Crl:CD <SD>, plasma, po, 100 mg/kg
Method: as §1, §2
(§4) Compound A suspended in a 1% (w/v) methylcellulose aqueous solution was orally administered to rats at 100 mg/kg. At 0.5, 1, 2, 4, 6 and 24 hours after oral administration, plasma and neural retina were sampled, and the concentrations of Compound A in the plasma and in the neural retina were quantified by liquid chromatography mass spectrometry <LC-MS>.
as §3

[3] = Neural retina concentration after single oral administration to rats (LC-MS); type: in vivo, rat
Method: as §1, §2, §4, §3

[4] = tested on: VEGF-induced retinal vascular permeability; experiment: Retinal vascular permeability suppression by intravitreal injection in rat model where VEGF-induced retinal vascular permeability was increased; type: in vivo; details: intravitreal 10, 30 or 100 μg/eye mixed with rat VEGF164 400 ng/eye; vitreous protein at 24 hours; FIG. 2
Method: Experiment 2. Retinal vascular permeability suppression by intravitreal injection of Compound A in rat model where VEGF-induced retinal vascular permeability was increased As experimental animals, male Brown Norway rats aged 8 weeks {CHARLES RIVER LABORATORIES JAPAN, INC.} were used. A mixture of rat VEGF164 {400 ng/eye, R&D Systems, Inc.} and Compound A (10 μg/eye, 30 μg/eye or 100 μg/eye) dissolved or suspended in a base was injected into the vitreous body of each eye of rats <Compound A-administered group>. In the vitreous body of each eye of rats of a base-administered group, a mixture of rat VEGF164 and the base of the same volume as that of the Compound A-administered group was injected. As the base, an aqueous base was used. In the vitreous body of each eye of rats of a normal control group, D-PBS (-) {Sigma-Aldrich Corporation} was injected. Each group included four rats <eight eyeballs>. At 24 hours after intravitreal injection of VEGF, rats were euthanized, and the eyeballs of the rats were enucleated while avoiding contamination with blood. […] The protein concentration in the sampled vitreous body was determined by the Bradford method. The rate of suppressing an increase of the retinal vascular permeability was calculated according to the following equation X. Rate of suppressing increase of retinal vascular permeability (%)=(PB-PX)/(PB-PA)×100 [Equation X] […]

## C[C@H]1CN(C(=O)CC#N)[C@]12CCN(c1ncnc3[nH]ccc13)C2 [Compound A, 3-[(3S,4R)-3-Methyl-6-(7H-pyrrolo[2,3-d]pyrimidin-4-yl)-1,6-diazaspiro[3.4]octan-1-yl]-3-oxopropanenitrile]
[1]; male, Crl:CD <SD>, neural retina, other: intravitreal injection, 10 μg/eye, 1 hr, average, read-out: Neural retina concentration of Compound A, Average
  concentration at 1 h: 45000 ng/mL
[1]; male, Crl:CD <SD>, neural retina, other: intravitreal injection, 10 μg/eye, 1 hr, individual eye, read-out: Neural retina concentration of Compound A
  concentration at 1 h: 39500 ng/mL
[1]; male, Crl:CD <SD>, neural retina, other: intravitreal injection, 10 μg/eye, 2 hr, average, read-out: Neural retina concentration of Compound A, Average
  concentration at 2 h: 9690 ng/mL
[1]; male, Crl:CD <SD>, neural retina, other: intravitreal injection, 10 μg/eye, 4 hr, average, read-out: Neural retina concentration of Compound A, Average
  concentration at 4 h: 1550 ng/mL
[1]; 1 hr, individual eye
  Neural retina concentration of Compound A: 52.66 µg/mL and 45.53 µg/mL and 42.17 µg/mL
[1]; 2 hr, individual eye
  Neural retina concentration of Compound A: 6.28 µg/mL and 13.49 µg/mL and 4.73 µg/mL and 12.71 µg/mL and 15.78 µg/mL and 5.13 µg/mL
[1]; 4 hr, individual eye
  Neural retina concentration of Compound A: 2.07 µg/mL and 2.64 µg/mL and 0.27 µg/mL and 1.42 µg/mL and 1.66 µg/mL and 1.26 µg/mL
[1]; 24 hr, individual eye
  Neural retina concentration of Compound A: BLQ (Below the lower limit of quantification (ca. 0.16 μg/g))
[2]; 0.5 hr, average, read-out: Plasma concentration of Compound A, Average
  concentration at 0.5 h: 6320 ng/mL
[2]; 0.5 hr, individual animal, read-out: Plasma concentration of Compound A
  concentration at 0.5 h: 5810 ng/mL
[2]; 1 hr, average, read-out: Plasma concentration of Compound A, Average
  concentration at 1 h: 8260 ng/mL
[2]; 1 hr, individual animal, read-out: Plasma concentration of Compound A
  concentration at 1 h: 7950 ng/mL
[2]; 2 hr, average, read-out: Plasma concentration of Compound A, Average
  concentration at 2 h: 6350 ng/mL
[2]; 2 hr, individual animal, read-out: Plasma concentration of Compound A
  concentration at 2 h: 6520 ng/mL
[2]; 4 hr, average, read-out: Plasma concentration of Compound A, Average
  concentration at 4 h: 4140 ng/mL
[2]; 4 hr, individual animal, read-out: Plasma concentration of Compound A
  concentration at 4 h: 4860 ng/mL
[2]; 6 hr, average, read-out: Plasma concentration of Compound A, Average
  concentration at 6 h: 4050 ng/mL
[2]; 6 hr, individual animal, read-out: Plasma concentration of Compound A
  concentration at 6 h: 3040 ng/mL
[2]; 24 hr, average, read-out: Plasma concentration of Compound A, Average
  concentration at 24 h: 20 ng/mL
[2]; 24 hr, individual animal, read-out: Plasma concentration of Compound A
  concentration at 24 h: 30 ng/mL
[2]; 0.5 hr, individual animal
  Plasma concentration of Compound A: 6830 ng/mL
[2]; 1 hr, individual animal
  Plasma concentration of Compound A: 8570 ng/mL
[2]; 2 hr, individual animal
  Plasma concentration of Compound A: 6180 ng/mL
[2]; 4 hr, individual animal
  Plasma concentration of Compound A: 3410 ng/mL
[2]; 6 hr, individual animal
  Plasma concentration of Compound A: 5060 ng/mL
[2]; 24 hr, individual animal
  Plasma concentration of Compound A: 20 ng/mL
[3]
  passage through the blood-retina barrier: passes through the blood-retina barrier
[3]; male, Crl:CD <SD>, rat, neural retina, po, 100 mg/kg, rat, oral 100 mg/kg single, 0.5 hr, average, read-out: Neural retina concentration of Compound A, Average
  concentration at 0.5 h: 3740 ng/mL
[3]; male, Crl:CD <SD>, rat, neural retina, po, 100 mg/kg, rat, oral 100 mg/kg single, 0.5 hr, individual eye, read-out: Neural retina concentration of Compound A
  concentration at 0.5 h: 2960 ng/mL
[3]; male, Crl:CD <SD>, rat, neural retina, po, 100 mg/kg, rat, oral 100 mg/kg single, 1 hr, average, read-out: Neural retina concentration of Compound A, Average
  concentration at 1 h: 3860 ng/mL
[3]; male, Crl:CD <SD>, rat, neural retina, po, 100 mg/kg, rat, oral 100 mg/kg single, 1 hr, individual eye, read-out: Neural retina concentration of Compound A
  concentration at 1 h: 3930 ng/mL
[3]; male, Crl:CD <SD>, rat, neural retina, po, 100 mg/kg, rat, oral 100 mg/kg single, 2 hr, average, read-out: Neural retina concentration of Compound A, Average
  concentration at 2 h: 2720 ng/mL
[3]; male, Crl:CD <SD>, rat, neural retina, po, 100 mg/kg, rat, oral 100 mg/kg single, 2 hr, individual eye, read-out: Neural retina concentration of Compound A
  concentration at 2 h: 2660 ng/mL
[3]; male, Crl:CD <SD>, rat, neural retina, po, 100 mg/kg, rat, oral 100 mg/kg single, 4 hr, average, read-out: Neural retina concentration of Compound A, Average
  concentration at 4 h: 2390 ng/mL
[3]; male, Crl:CD <SD>, rat, neural retina, po, 100 mg/kg, rat, oral 100 mg/kg single, 4 hr, individual eye, read-out: Neural retina concentration of Compound A
  concentration at 4 h: 2300 ng/mL
[3]; male, Crl:CD <SD>, rat, neural retina, po, 100 mg/kg, rat, oral 100 mg/kg single, 6 hr, average, read-out: Neural retina concentration of Compound A, Average
  concentration at 6 h: 1920 ng/mL
[3]; rat, oral 100 mg/kg single, 0.5 hr, individual eye, 100 mg/kg
  Neural retina concentration of Compound A: 4.42 µg/mL and 4.89 µg/mL and 2.70 µg/mL
[3]; rat, oral 100 mg/kg single, 1 hr, individual eye, 100 mg/kg
  Neural retina concentration of Compound A: 4.48 µg/mL and 3.24 µg/mL and 3.80 µg/mL
[3]; rat, oral 100 mg/kg single, 2 hr, individual eye, 100 mg/kg
  Neural retina concentration of Compound A: 2.12 µg/mL and 3.38 µg/mL
[3]; rat, oral 100 mg/kg single, 4 hr, individual eye, 100 mg/kg
  Neural retina concentration of Compound A: 2.54 µg/mL and 2.29 µg/mL and 2.43 µg/mL
[3]; rat, oral 100 mg/kg single, 6 hr, individual eye, 100 mg/kg
  Neural retina concentration of Compound A: 2.90 µg/mL and 2.24 µg/mL and 1.05 µg/mL and 1.47 µg/mL
[3]; rat, oral 100 mg/kg single, 24 hr, individual eye
  Neural retina concentration of Compound A: BLQ (Below the lower limit of quantification (ca. 0.16 μg/g))
[4]
  suppression of retinal vascular permeability: suppression of retinal vascular permeability
